Source: patent US4476120A, “Thiolic derivatives of erythromycin having therapeutic activity, and pharmaceutical compositions containing them” (Sigma Tau Indistrie Farmaceutiche Riunites, p.A, priority 1982, dated 1984)
Values after ≈ are worked out from the molar mass of the structure shown.

Legend:
Br. abortus SS 7 = assay type: cell-based; conditions: Brain Heart Infusion, estolate and RV11-RV15 previously hydrolized, unit assumed
[1] = Histological examination of bronchi after SO2 inhalation; assay type: in vivo, Sprague Dawley male rats; conditions: i.m., 250 mg/kg; for histological appearance of non obstructed bronchi: free non obstructed
Staph. aureus SS 07 [2] = assay type: cell-based; conditions: Brain Heart Infusion, estolate and RV11-RV15 previously hydrolized, unit assumed
Sr. marcescens SS 03 = assay type: cell-based; conditions: Brain Heart Infusion, estolate and RV11-RV15 previously hydrolized, unit assumed
Staph. aureus SS 07 [3] = assay: Experimental infection induced by Staph. aureus SS 07; assay type: in vivo, Swiss white mice; conditions: Staph. aureus SS 07, mg/kg of erythromycin, survival after 7 days, 10080 min
Outline: (§1)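 Swiss mice of 20 g infected parenterally with lethal amounts of Staph. aureus SS 07 or D. pneumoniae SS 23. Antibiotics were given at infection and again 6 and 24 h later. ED50 was derived from survival at 7 days.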

Staph. albus SS 04 = assay type: cell-based; conditions: Brain Heart Infusion, estolate and RV11-RV15 previously hydrolized, unit assumed
Acute toxicity = assay type: in vivo; conditions: mortality 10 days after treatment, mice
Method: The acute toxicity was assessed in Swiss white mice by oral and intravenous route. The LD50 values have been calculated by the methods of Probits, starting from the mortality recorded 10 days after the treatment.

Ps. aeruginosa SS 10 = assay type: cell-based; conditions: Brain Heart Infusion, estolate and RV11-RV15 previously hydrolized, unit assumed
B. cereus ATCC 11778 = assay type: cell-based; conditions: Brain Heart Infusion, estolate and RV11-RV15 previously hydrolized, unit assumed
Kl. aerogenes SS 71 = assay type: cell-based; conditions: Brain Heart Infusion, estolate and RV11-RV15 previously hydrolized, unit assumed
Citrobacter SS 05 = assay type: cell-based; conditions: Brain Heart Infusion, estolate and RV11-RV15 previously hydrolized, unit assumed
E. coli SS 07 = assay type: cell-based; conditions: Brain Heart Infusion, estolate and RV11-RV15 previously hydrolized, unit assumed
E. coli SS 04 = assay type: cell-based; conditions: Brain Heart Infusion, estolate and RV11-RV15 previously hydrolized, unit assumed
S. heidelberg SS 18 = assay type: cell-based; conditions: Brain Heart Infusion, estolate and RV11-RV15 previously hydrolized, unit assumed
[4] = Mucolytic activity: obstruction of the bronchial tract after SO2 inhalation; assay type: in vivo, Sprague Dawley male rats; conditions: i.m., 250 mg/kg; SO2, 15 days
B. subtilis ATCC 6633 = assay type: cell-based; conditions: Brain Heart Infusion, estolate and RV11-RV15 previously hydrolized, unit assumed
E. coli SS 05 = assay type: cell-based; conditions: Brain Heart Infusion, estolate and RV11-RV15 previously hydrolized, unit assumed
S. lutea ATCC 9341 = assay type: cell-based; conditions: Brain Heart Infusion, estolate and RV11-RV15 previously hydrolized, unit assumed
B. subtilis SS 127 = assay type: cell-based; conditions: Brain Heart Infusion, estolate and RV11-RV15 previously hydrolized, unit assumed
E. coli SS 06 = assay type: cell-based; conditions: Brain Heart Infusion, estolate and RV11-RV15 previously hydrolized, unit assumed
[5] = test system: Strept. haemolyticus SS 18; assay type: cell-based; conditions: Brain Heart Infusion, estolate and RV11-RV15 previously hydrolized, unit assumed
Pr. vulgaris SS 10 = assay type: cell-based; conditions: Brain Heart Infusion, estolate and RV11-RV15 previously hydrolized, unit assumed
N. meningitidis SS 04 = assay type: cell-based; conditions: Brain Heart Infusion, estolate and RV11-RV15 previously hydrolized, unit assumed
Staph. aureus SS 10 = assay type: cell-based; conditions: Brain Heart Infusion, estolate and RV11-RV15 previously hydrolized, unit assumed
Kl. pneumoniae SS 04 = assay type: cell-based; conditions: Brain Heart Infusion, estolate and RV11-RV15 previously hydrolized, unit assumed
Description: (§2) In the following table I the MIC/ml values are indicated corresponding to the lowest concentration capable of inducing a complete inhibition of the bacterial development.

H. tubercolosis SS 03 = assay type: cell-based; conditions: Brain Heart Infusion, estolate and RV11-RV15 previously hydrolized, unit assumed
Description: as §2

E. aerogenes SS 011 = assay type: cell-based; conditions: Brain Heart Infusion, estolate and RV11-RV15 previously hydrolized, unit assumed
E. cloacae SS 07 = assay type: cell-based; conditions: Brain Heart Infusion, estolate and RV11-RV15 previously hydrolized, unit assumed
Cl. tetani SS 17 = assay type: cell-based; conditions: Brain Heart Infusion, estolate and RV11-RV15 previously hydrolized, unit assumed
S. infantis SS 08 = assay type: cell-based; conditions: Brain Heart Infusion, estolate and RV11-RV15 previously hydrolized, unit assumed
Pr. mirabilis SS 09 = assay type: cell-based; conditions: Brain Heart Infusion, estolate and RV11-RV15 previously hydrolized, unit assumed
C. albicans SS 04 = assay type: cell-based; conditions: Brain Heart Infusion, estolate and RV11-RV15 previously hydrolized, unit assumed
Strept. faecalis SS 19 = assay type: cell-based; conditions: Brain Heart Infusion, estolate and RV11-RV15 previously hydrolized, unit assumed
Br. melitensis SS 19 = assay type: cell-based; conditions: unit assumed
N. gonorreae SS 27 = assay type: cell-based; conditions: Brain Heart Infusion, estolate and RV11-RV15 previously hydrolized, unit assumed
H. influentiae SS 02 = assay type: cell-based; conditions: Brain Heart Infusion, estolate and RV11-RV15 previously hydrolized, unit assumed
D. pneumoniae SS 23 [6] = assay type: cell-based; conditions: Brain Heart Infusion, estolate and RV11-RV15 previously hydrolized, unit assumed
C. diphtheriae SS 19 = assay type: cell-based; conditions: Brain Heart Infusion, estolate and RV11-RV15 previously hydrolized, unit assumed
Staph. aureus SS 08 = assay type: cell-based; conditions: Brain Heart Infusion, estolate and RV11-RV15 previously hydrolized, unit assumed
[7] = test system: Strept. haemolyticus SS 17; assay type: cell-based; conditions: Brain Heart Infusion, estolate and RV11-RV15 previously hydrolized, unit assumed
D. pneumoniae SS 23 [8] = assay: Experimental infection induced by D. pneumoniae SS 23; assay type: in vivo, Swiss white mice; conditions: D. pneumoniae SS 23, mg/kg of erythromycin, survival after 7 days, 10080 min
Outline: as §1

Staph. aureus SS 09 = assay type: cell-based; conditions: Brain Heart Infusion, estolate and RV11-RV15 previously hydrolized, unit assumed

## CC[C@H]1OC(=O)[C@H](C)[C@@H](O[C@H]2C[C@@](C)(OC)[C@@H](O)[C@H](C)O2)[C@H](C)[C@@H](O[C@@H]2O[C@H](C)C[C@H](N(C)C)[C@H]2O)[C@](C)(O)C[C@@H](C)C(=O)[C@H](C)[C@@H](O)[C@]1(C)O [RV04, erythromycin-S-carboxymethylcysteinate]
Br. abortus SS 7
  MIC: 6 µg/mL (≈ 8.18 µM)
[1]
  histological appearance of non obstructed bronchi: practically normal appearance
  histological appearance of obstructed bronchial tract: an appearance like that of the control animals
Staph. aureus SS 07 [2]
  MIC: 0.025 µg/mL (≈ 0.0341 µM)
Sr. marcescens SS 03
  MIC: > 200 µg/mL
Staph. aureus SS 07 [3]; os
  ED50 (reliability limits): 2.31 (2.55-2.09) mg/kg
Staph. aureus SS 07 [3]; s.c.
  ED50 (reliability limits): 1.00 (1.24-0.80) mg/kg
Staph. albus SS 04
  MIC: 0.05 µg/mL (≈ 0.0681 µM)
Acute toxicity; i.v., 14400 min
  LD50 (reliability limits): 439.46 (545.44-354.08) mg.kg
Acute toxicity; os
  LD50 (reliability limits): > 3000 mg·kg
Ps. aeruginosa SS 10
  MIC: 100 µg/mL (≈ 136 µM)
B. cereus ATCC 11778
  MIC: 0.2 µg/mL (≈ 0.273 µM)
Kl. aerogenes SS 71
  MIC: 50 µg/mL (≈ 68.1 µM)
Citrobacter SS 05
  MIC: > 200 µg/mL
E. coli SS 07
  MIC: 25 µg/mL (≈ 34.1 µM)
E. coli SS 04
  MIC: 100 µg/mL (≈ 136 µM)
S. heidelberg SS 18
  MIC: 100 µg/mL (≈ 136 µM)
[4]
  Partial obstruction (% incidence): 13.33%
  Total obstruction, compact plug (% incidence): 20%
  Total obstruction, nodular mass (% incidence): 13.33%
  Total obstruction, pimply mass (% incidence): 6.66%
B. subtilis ATCC 6633
  MIC: 0.025 µg/mL (≈ 0.0341 µM)
E. coli SS 05
  MIC: 50 µg/mL (≈ 68.1 µM)
S. lutea ATCC 9341
  MIC: 0.01 µg/mL (≈ 0.0136 µM)
B. subtilis SS 127
  MIC: 0.025 µg/mL (≈ 0.0341 µM)
E. coli SS 06
  MIC: 100 µg/mL (≈ 136 µM)
[5]
  MIC: 1.5 µg/mL (≈ 2.04 µM)
Pr. vulgaris SS 10
  MIC: > 200 µg/mL
N. meningitidis SS 04
  MIC: 1.5 µg/mL (≈ 2.04 µM)
Staph. aureus SS 10
  MIC: 0.2 µg/mL (≈ 0.273 µM)
Kl. pneumoniae SS 04
  MIC: 100 µg/mL (≈ 136 µM)
H. tubercolosis SS 03
  MIC: 50 µg/mL (≈ 68.1 µM)
E. aerogenes SS 011
  MIC: 50 µg/mL (≈ 68.1 µM)
E. cloacae SS 07
  MIC: > 200 µg/mL
Cl. tetani SS 17
  MIC: 0.2 µg/mL (≈ 0.273 µM)
S. infantis SS 08
  MIC: 100 µg/mL (≈ 136 µM)
Pr. mirabilis SS 09
  MIC: 200 µg/mL (≈ 273 µM)
C. albicans SS 04
  MIC: 100 µg/mL (≈ 136 µM)
Strept. faecalis SS 19
  MIC: 0.05 µg/mL (≈ 0.0681 µM)
Br. melitensis SS 19
  MIC: 6 µg/mL (≈ 8.18 µM)
N. gonorreae SS 27
  MIC: 0.8 µg/mL (≈ 1.09 µM)
H. influentiae SS 02
  MIC: 1.5 µg/mL (≈ 2.04 µM)
D. pneumoniae SS 23 [6]
  MIC: 0.05 µg/mL (≈ 0.0681 µM)
C. diphtheriae SS 19
  MIC: 0.205 µg/mL (≈ 0.279 µM)
Staph. aureus SS 08
  MIC: 0.05 µg/mL (≈ 0.0681 µM)
[7]
  MIC: 1.5 µg/mL (≈ 2.04 µM)
D. pneumoniae SS 23 [8]; os
  ED50 (reliability limits): 119.31 (152.88-92.95) mg/kg
D. pneumoniae SS 23 [8]; s.c.
  ED50 (reliability limits): 60.17 (70.74-51.18) mg/kg
Staph. aureus SS 09
  MIC: 0.025 µg/mL (≈ 0.0341 µM)

## CC[C@H]1OC(=O)[C@H](C)[C@@H](O[C@H]2C[C@@](C)(OC)[C@@H](O)[C@H](C)O2)[C@H](C)[C@@H](O[C@@H]2O[C@H](C)C[C@H](N(C)C)[C@H]2O)[C@](C)(O)C[C@@H](C)C(=O)[C@H](C)[C@@H](O)[C@]1(C)O [RV05, erythromycin-N-acetylcysteinate]
Br. abortus SS 7
  MIC: 12 µg/mL (≈ 16.4 µM)
[1]
  histological appearance of non obstructed bronchi: practically normal appearance
  histological appearance of obstructed bronchial tract: an appearance like that of the control animals
Staph. aureus SS 07 [2]
  MIC: 0.025 µg/mL (≈ 0.0341 µM)
Sr. marcescens SS 03
  MIC: 200 µg/mL (≈ 273 µM)
Staph. aureus SS 07 [3]; os
  ED50 (reliability limits): 2.08 (2.38-1.83) mg/kg
Staph. aureus SS 07 [3]; s.c.
  ED50 (reliability limits): 1.33 (1.61-1.10) mg/kg
Staph. albus SS 04
  MIC: 0.025 µg/mL (≈ 0.0341 µM)
Acute toxicity; i.v., 14400 min
  LD50 (reliability limits): 472.84 (529.08-442.57) mg.kg
Acute toxicity; os
  LD50 (reliability limits): > 3000 mg·kg
Ps. aeruginosa SS 10
  MIC: 200 µg/mL (≈ 273 µM)
B. cereus ATCC 11778
  MIC: 0.4 µg/mL (≈ 0.545 µM)
Kl. aerogenes SS 71
  MIC: 50 µg/mL (≈ 68.1 µM)
Citrobacter SS 05
  MIC: > 200 µg/mL
E. coli SS 07
  MIC: 25 µg/mL (≈ 34.1 µM)
E. coli SS 04
  MIC: 100 µg/mL (≈ 136 µM)
S. heidelberg SS 18
  MIC: 100 µg/mL (≈ 136 µM)
[4]
  Partial obstruction (% incidence): 6.66%
  Total obstruction, compact plug (% incidence): 20%
  Total obstruction, nodular mass (% incidence): 13.33%
  Total obstruction, pimply mass (% incidence): 6.66%
B. subtilis ATCC 6633
  MIC: 0.01 µg/mL (≈ 0.0136 µM)
E. coli SS 05
  MIC: 25 µg/mL (≈ 34.1 µM)
S. lutea ATCC 9341
  MIC: 0.01 µg/mL (≈ 0.0136 µM)
B. subtilis SS 127
  MIC: 0.01 µg/mL (≈ 0.0136 µM)
E. coli SS 06
  MIC: 100 µg/mL (≈ 136 µM)
[5]
  MIC: 0.8 µg/mL (≈ 1.09 µM)
Pr. vulgaris SS 10
  MIC: > 200 µg/mL
N. meningitidis SS 04
  MIC: 0.8 µg/mL (≈ 1.09 µM)
Staph. aureus SS 10
  MIC: 0.025 µg/mL (≈ 0.0341 µM)
Kl. pneumoniae SS 04
  MIC: 50 µg/mL (≈ 68.1 µM)
H. tubercolosis SS 03
  MIC: 50 µg/mL (≈ 68.1 µM)
E. aerogenes SS 011
  MIC: 100 µg/mL (≈ 136 µM)
E. cloacae SS 07
  MIC: > 200 µg/mL
Cl. tetani SS 17
  MIC: 0.2 µg/mL (≈ 0.273 µM)
S. infantis SS 08
  MIC: 100 µg/mL (≈ 136 µM)
Pr. mirabilis SS 09
  MIC: > 200 µg/mL
C. albicans SS 04
  MIC: 100 µg/mL (≈ 136 µM)
Strept. faecalis SS 19
  MIC: 0.2 µg/mL (≈ 0.273 µM)
Br. melitensis SS 19
  MIC: 3 µg/mL (≈ 4.09 µM)
N. gonorreae SS 27
  MIC: 0.8 µg/mL (≈ 1.09 µM)
H. influentiae SS 02
  MIC: 0.8 µg/mL (≈ 1.09 µM)
D. pneumoniae SS 23 [6]
  MIC: 0.05 µg/mL (≈ 0.0681 µM)
C. diphtheriae SS 19
  MIC: 0.05 µg/mL (≈ 0.0681 µM)
Staph. aureus SS 08
  MIC: 0.025 µg/mL (≈ 0.0341 µM)
[7]
  MIC: 3 µg/mL (≈ 4.09 µM)
D. pneumoniae SS 23 [8]; os
  ED50 (reliability limits): 119.31 (150.05-94.87) mg/kg
D. pneumoniae SS 23 [8]; s.c.
  ED50 (reliability limits): 50.22 (62.33-40.46) mg/kg
Staph. aureus SS 09
  MIC: 0.1 µg/mL (≈ 0.136 µM)
